Patent US12162859B2, “Crystalline and amorphous forms of a compound for the targeted degradation of estrogen receptor” (Arvinas Operations, Inc., priority 2020, dated 2024)
Values after ≈ are worked out from the molar mass of the structure shown.

Tests used:
Assay type in all cases: physicochemical
[1] = Thermodynamic solubility of Form I in solvents and aqueous pH media; conditions: for solubility thermodynamic: thermodynamic from solid
[2] = Relative stability of the four identified polymorphic forms
Source text: A summary of the relevant characteristics of Form I is found below in Table 10: […]

[3] = 1 week stability of Form I under storage conditions
[4] = Hygroscopicity (DVS water uptake at 90% RH)

O=C1CC[C@H](N2Cc3cc(N4CCN(CC5CCN(c6ccc([C@@H]7c8ccc(O)cc8CC[C@@H]7c7ccccc7)cc6)CC5)CC4)ccc3C2=O)C(=O)N1 [Form I, (S)-3-(5-(4-((1-(4-((1R,2S)-6-hydroxy-2-phenyl-1,2,3,4-tetrahydronaphthalen-1-yl)phenyl)piperidin-4-yl)methyl)piperazin-1-yl)-1-oxoisoindolin-2-yl)piperidine-2,6-dione]
Solid form recovered in thermodynamic solubility test ([1]; 1-Butanol): Form I
solubility thermodynamic ([1]; 1-butanol, organic solvent or mixture): 500 µg/mL (≈ 691 µM)
Solid form recovered in thermodynamic solubility test ([1]; Acetone): Form I (PO)
solubility thermodynamic ([1]; DCM:methanol (90:10 v/v), organic solvent or mixture): > 67000 µg/mL
Solid form recovered in thermodynamic solubility test ([1]; Dichloromethane): Form I (PO)
Solid form recovered in thermodynamic solubility test ([1]; Ethanol): Form I
Solid form recovered in thermodynamic solubility test ([1]; Methanol): Form I
solubility thermodynamic ([1]; N,N′-dimethylacetamide, organic solvent or mixture): > 100000 µg/mL
solubility thermodynamic ([1]; THF, organic solvent or mixture): > 67000 µg/mL
solubility thermodynamic ([1]; acetone, organic solvent or mixture): 4000 µg/mL (≈ 5530 µM)
solubility thermodynamic ([1]; aqueous pH medium, pH 1, simulated gastric fluid): 100 µg/mL (≈ 138 µM)
solubility thermodynamic ([1]; aqueous pH medium, pH 4, aqueous buffer): < 50 µg/mL
solubility thermodynamic ([1]; aqueous pH medium, pH 5, aqueous buffer): < 50 µg/mL
solubility thermodynamic ([1]; aqueous pH medium, pH 6, aqueous buffer): < 50 µg/mL
solubility thermodynamic ([1]; dichloromethane, organic solvent or mixture): 14800 µg/mL (≈ 20400 µM)
solubility thermodynamic ([1]; ethanol, organic solvent or mixture): 800 µg/mL (≈ 1110 µM)
solubility thermodynamic ([1]; methanol, organic solvent or mixture): 1100 µg/mL (≈ 1520 µM)
Solid form recovered in thermodynamic solubility test ([1]; pH 1): Form I
Solid form recovered in thermodynamic solubility test ([1]; pH 4): Amorphous
Solid form recovered in thermodynamic solubility test ([1]; pH 5): Form I
Solid form recovered in thermodynamic solubility test ([1]; pH 6): Form I
Stability relative to the other identified forms [2]: most stable
1 Week Stability, solid form ([3]; 40° C./75% RH): Form I
1 Week Stability, solid form ([3]; 80° C.): Form I
1 Week Stability, solid form ([3]; Ambient): Form I
Hygroscopicity (water uptake at 90% RH) ([4]; 90% RH): 1.7%
hygroscopicity ([4]; at 90% RH): 1.7 wt. %
Post-DVS XRPD ([4]; solid form by XRPD after DVS): Form I
